Assay results taken from patent US8673929B2, “4,6-di- and 2,4,6-trisubstituted quinazoline derivatives and pharmaceutical compositions useful for treating viral infections” (priority 2006, dated 2014).

How the values were obtained:
HCV replicon = assay: Anti-HCV replicon assay, EC50 (luciferase readout); type: cell-based; details: Huh-7 HCV replicon cells, 3 days incubation, luciferase luminescence
Description: (§1) The anti HCV activity of the quinazoline derivatives of this invention was tested in a human hepatoma Huh-7 cell line harbouring a HCV replicon. The assay comprised the following steps:
(§2) Step 1: compound preparation and serial dilution • 1. for water soluble quinazoline derivatives, a volume of 500 μL of solution in cell media (DMEM, 10% FBS, P/S, L-Glutamine) was prepared with a concentration being twice the concentration of the starting final serial dilution concentration. A volume of 150 μL of the solution was added to the pre-specified wells in column 1 of a 96-well cell culture plate (PerkinElmer, white plate, cat. #6005181, for EC50 assay; black plate, cat. #6005182 for CC50 assay). The rest of the plate, columns 2-12, was filled with 100 μL of cell media. The plate was then placed on a Precision 2000 Workstation to start the serial dilution. Compounds were diluted three times each step from column 1 to column 10. Column 11 was used as a blank control (no compound added). • 2. for quinazoline derivatives requiring DMSO to dissolve, serial dilution is performed in 50% DMSO in a 384-well plate. A solution containing a compound at 100-fold concentration of the starting final serial dilution concentration was prepared in 50% DMSO and added to the pre-specified wells in column 1 of a polypropylene 384-well plate. The plate was then placed on a Precision 2000 Workstation to start the serial dilution. After the serial dilution, a volume of 2 μL of the solution was transferred from the 384-well plate to a 96-well cell culture plate containing 100 μL of cell media on a Biomek FX Workstation. The DMSO concentration in the final assay condition was 0.5% after cells are added to the plate and the total volume in each well is brought to 200 μL.
(§3) Step 2: to each well of the serial dilution plate prepared above, 100 μL of cell media containing 6000 suspended Huh-7 HCV replicon cells was added with a Multidrop workstation. The plates were incubated for 3 days at 37° C. with 5% CO2.
(§4) Step 3: detection: • a) for the EC50 assay, the media in a 96-well cell culture plate was aspirated with a Biotek EL405 plate-washer. A volume of 200 μL of a solution containing a 1:1 mixture of cell-lysis buffer (Promega, Luciferase Cell Culture Lysis 5× Reagent, cat. #E1531) and luciferase substrate solution (Promega, Luciferase Assay, cat.# E4550) was added to each well of the plate with Multidrop. The plate was incubated for 30 minutes at room temperature before the luminescence signal was measured with a TopCount plate-reader. • b) for the CC50 assay, a volume of 100 μL of pre-mixed CellTiter-Glo (Promega, cat.# G7572) solution is added directly to the cell culture in each well of the plate and the luminescence signal is measured with a TopCount plate-reader after 10 minutes of incubation at room temperature.
(§5) Results in the table below are expressed by the following data: • the 50% cytostatic concentration (CC50), i.e. the concentration that results in 50% inhibition of cell growth, and • the 50% effective concentration (EC50), i.e. the concentration that […].

[1] = CC50 assay in the anti-HCV replicon assay (CellTiter-Glo); type: cell-based, human; details: human, Huh-7 hepatoma cells harbouring an HCV replicon; Huh-7 HCV replicon cells, 3 days incubation, CellTiter-Glo luminescence
Description: as §1, §2, §3, §4, §5

Molecule | EC50 (HCV replicon) | CC50 at 3 days [1] | EC50 (HCV replicon; Hepatitis C virus, 72 h)
4-(4-(2-methmethoxy)-quinazolin-6-yl)-N-methyl-benzamide [Example 246] | 1 to 10 µM |  | 
COc1ccc(-c2ccc3nc(N)nc(OC(C)C)c3c2)cc1OC [Example 18, 2-amino-6-(3,4-dimethoxyphenyl)-4-isopropoxy-quinazoline] |  | < 10 µM | < 0.3 µM
CCOc1nc(N)nc2ccc(-c3ccc(F)cc3)cc12 [Example 19, 2-amino-4-ethoxy-6-(4-fluorophenyl)-quinazoline] |  | > 20 µM | 1 to 10 µM
COCCOc1nc(N)nc2ccc(-c3ccc(F)cc3)cc12 [Example 20, 2-amino-6-(4-fluorophenyl)-4-(2-methoxyethoxy)-quinazoline] |  | 10 to 20 µM | 1 to 10 µM
CC(C)Oc1nc(N)nc2ccc(-c3ccc(F)cc3)cc12 [Example 21, 2-amino-6-(4-fluorophenyl)-4-isopropoxy-quinazoline] |  | > 20 µM | 1 to 10 µM
Nc1nc(OCC(F)(F)F)c2cc(-c3ccc(F)cc3)ccc2n1 [Example 26, 2-amino-6-(4-fluorophenyl)-4-(2,2,2-trifluoroethoxy)-quinazoline] |  | 10 to 20 µM | 1 to 10 µM
CC(=O)Nc1ccc(-c2ccc3nc(N)nc(OC(C)C)c3c2)cc1 [Example 27, 2-amino-6-(4-acetamidophenyl)-4-isopropoxy-quinazoline] |  | > 20 µM | 0.3 to 1 µM
COCCOc1nc(N)nc2ccc(-c3ccc(NC(C)=O)cc3)cc12 [Example 28, 2-amino-6-(4-acetamidophenyl)-4-(2-methoxyethoxy)-quinazoline] |  | 10 to 20 µM | 0.3 to 1 µM
CC(=O)Nc1ccc(-c2ccc3nc(N)nc(OCCN4CCOCC4)c3c2)cc1 [Example 29, 2-amino-6-(4-acetamidophenyl)-4-[2-(4-morpholinyl)ethoxy]-quinazoline] |  | > 20 µM | 0.3 to 1 µM
CCOc1nc(N)nc2ccc(-c3ccc(NC(C)=O)cc3)cc12 [Example 30, 2-amino-6-(4-acetamidophenyl)-4-ethoxy-quinazoline] |  | > 20 µM | 0.3 to 1 µM
CC(=O)Nc1ccc(-c2ccc3nc(N)nc(OCC4CC4)c3c2)cc1 [Example 31, 2-amino-6-(4-acetamidophenyl)-4-(cyclopropyl-methoxy)-quinazoline] |  | > 20 µM | 0.3 to 1 µM
CC(=O)Nc1ccc(-c2ccc3nc(N)nc(OCC(F)(F)F)c3c2)cc1 [Example 32, 2-amino-6-(4-acetamidophenyl)-4-(2,2,2-trifluoroethoxy)-quinazoline] |  | > 20 µM | 0.3 to 1 µM
CCOc1ncnc2ccc(-c3ccc(F)cc3)cc12 [Example 34, 4-ethoxy-6-(4-fluorophenyl)-quinazoline] |  | > 20 µM | 0.3 to 1 µM
COCCOc1ncnc2ccc(-c3ccc(F)cc3)cc12 [Example 35, 4-(2-methoxyethoxy)-6-(4-fluorophenyl)-quinazoline] |  | > 20 µM | 1 to 10 µM
CCOc1nc(N)nc2ccc(-c3cccc(F)c3F)cc12 [Example 38] |  | 10 to 20 µM | 1 to 10 µM
CCOc1nc(N)nc2ccc(-c3ccc(C)cc3)cc12 [Example 39, 4-Ethoxy-6-p-tolyl-quinazolin-2-ylamine] |  | > 20 µM | 1 to 10 µM
CCOc1nc(N)nc2ccc(-c3ccoc3)cc12 [Example 40, 4-Ethoxy-6-furan-3-yl-quinazolin-2-ylamine] |  | > 20 µM | 1 to 10 µM
CCOc1nc(N)nc2ccc(-c3ccn[nH]3)cc12 [Example 41, 4-Ethoxy-6-(2H-pyrazol-3-yl)-quinazolin-2-ylamine] |  | > 20 µM | 1 to 10 µM
CCOc1nc(N)nc2ccc(-c3cccs3)cc12 [Example 42, 4-Ethoxy-6-thiophen-2-yl-quinazolin-2-ylamine] |  | < 10 µM | 1 to 10 µM

Molecule | EC50 (HCV replicon) | CC50 at 3 days [1] | EC50 (HCV replicon; Hepatitis C virus, 72 h)
CCOc1nc(N)nc2ccc(-c3ccc(C(=O)NC)cc3)cc12 [Example 43, 4-(2-Amino-4-ethoxy-quinazolin-6-yl)-N-methyl-benzamide] |  | > 20 µM | < 0.3 µM
CCOc1nc(N)nc2ccc(-c3ccco3)cc12 [Example 44, 4-Ethoxy-6-furan-2-yl-quinazolin-2-ylamine] |  | > 20 µM | 1 to 10 µM
CCOc1nc(N)nc2ccc(-c3ccsc3)cc12 [Example 45, 4-Ethoxy-6-thiophen-3-yl-quinazolin-2-ylamine] |  | > 20 µM | 1 to 10 µM
CCOc1nc(N)nc2ccc(-c3ccc(F)c(F)c3)cc12 [Example 46, 6-(3,4-Difluoro-phenyl)-4-ethoxy-quinazolin-2-ylamine] |  | > 20 µM | 1 to 10 µM
CCOc1nc(N)nc2ccc(-c3cccc(C#N)c3)cc12 [Example 47, 3-(2-Amino-4-ethoxy-quinazolin-6-yl)-benzonitrile] |  | > 20 µM | 1 to 10 µM
CCOc1nc(N)nc2ccc(-c3cn[nH]c3)cc12 [Example 48, 4-Ethoxy-6-(2H-pyrazol-4-yl)-quinazolin-2-ylamine] |  | > 20 µM | 0.3 to 1 µM
CCOc1nc(N)nc2ccc(-c3ccc(N)cc3)cc12 [Example 49, 6-(4-Amino-phenyl)-4-ethoxy-quinazolin-2-ylamine] |  | > 20 µM | 1 to 10 µM
CCOc1nc(N)nc2ccc(-c3ccc(F)c(F)c3F)cc12 [Example 50, 4-Ethoxy-6-(2,3,4-trifluoro-phenyl)-quinazolin-2-ylamine] |  | 10 to 20 µM | 1 to 10 µM
CCOc1nc(N)nc2ccc(-c3ccc(O)cc3)cc12 [Example 51, 4-(2-Amino-4-ethoxy-quinazolin-6-yl)-phenol] |  | 10 to 20 µM | 0.3 to 1 µM
COCCOc1nc(N)nc2ccc(-c3cccc(F)c3F)cc12 [Example 52, 6-(2,3-Difluoro-phenyl)-4-(2-methoxy-ethoxy)-quinazolin-2-ylamine] |  | 10 to 20 µM | 1 to 10 µM
COCCOc1nc(N)nc2ccc(-c3ccccc3C(F)(F)F)cc12 [Example 53, 4-(2-Methoxy-ethoxy)-6-(2-trifluoromethyl-phenyl)-quinazolin-2-ylamine] |  | < 10 µM | 1 to 10 µM
COCCOc1nc(N)nc2ccc(-c3ccc(Cl)s3)cc12 [Example 54, 6-(5-Chloro-thiophen-2-yl)-4-(2-methoxy-ethoxy)-quinazolin-2-ylamine] |  | > 20 µM | 1 to 10 µM
COCCOc1nc(N)nc2ccc(-c3ccc(C)cc3)cc12 [Example 55, 4-(2-Methoxy-ethoxy)-6-p-tolyl-quinazolin-2-ylamine] |  | > 20 µM | 1 to 10 µM
COCCOc1nc(N)nc2ccc(-c3cc4ccccc4s3)cc12 [Example 56, 6-Benzo[b]thiophen-2-yl-4-(2-methoxy-ethoxy)-quinazolin-2-ylamine] |  | > 20 µM | 1 to 10 µM
COCCOc1nc(N)nc2ccc(-c3cc4ccccc4o3)cc12 [Example 57, 6-Benzofuran-2-yl-4-(2-methoxy-ethoxy)-quinazolin-2-ylamine] |  | 10 to 20 µM | 1 to 10 µM
COCCOc1nc(N)nc2ccc(-c3cccs3)cc12 [Example 58, 4-(2-Methoxy-ethoxy)-6-thiophen-2-yl-quinazolin-2-ylamine] |  | > 20 µM | 1 to 10 µM
CNC(=O)c1ccc(-c2ccc3nc(N)nc(OCCOC)c3c2)cc1 [Example 59, 4-(2-Amino-4-(2-methoxy-ethoxy)-quinazolin-6-yl)-N-methyl-benzamide] |  | > 20 µM | 1 to 10 µM
COCCOc1nc(N)nc2ccc(-c3ccco3)cc12 [Example 60, 4-(2-Methoxy-ethoxy)-6-furan-2-yl-quinazolin-2-ylamine] |  | > 20 µM | 1 to 10 µM
COCCOc1nc(N)nc2ccc(-c3ccsc3)cc12 [Example 61, 4-(2-Methoxy-ethoxy)-6-thiophen-3-yl-quinazolin-2-ylamine] |  | > 20 µM | 1 to 10 µM
